Experimental data as given in patent US20160129070A1, “Glutathione Disulfide Compositions and Related Methods for the Treatment of Cancer” (South Dakota Board of Regents, priority 2014, published 2016).

Test system: B16-F10 cells lung metastasis
Test: Murine lung metastasis assay, B16-F10 cells injected through a tail vein
Assay type: in vivo, mice
Settings: no pretreatment of cells; 50 mg/kg i.p. daily for 5 days; day 21
Source text: Mice were housed four in a cage and received food and water ad libitum. All mice were used at approximately 7-10 weeks of age and given at least one week break after arrival. All experimental protocols were approved by the Institutional Animal Care and Use Committee. Procedures for murine lung metastasis assays reported previously were followed with minor modification [Bezault, J., Bhimani, R., Wiprovnick, J., and Furmanski, P. (1994) Cancer Res 54, 2310-2312; Kalland, T. (1986) Cancer Res 46, 3018-3022; Schultz, R. M., Silberman, S., Persky, B., Bajkowski, A. S., and Carmichael, D. F. (1988) Cancer Res 48, 5539-5545]. Mice were divided into 7 mice per group for treatment. B16-F10 cells were grown and maintained as monolayers in RPMI 1640 medium supplemented with 10% FBS and 1% penicillin/streptomycin in 5% CO2 at 37° C. The cells were then subjected to FBS starvation in RPMI 1640 medium without FBS for 24 h. Cells were harvested through trypsinization and adjusted to a density of […] with serum free medium. […] The weight of mice was recorded daily. […] Tumor nodules on lung surface were counted under a magnifier.
FIG. 5 presents the representative photographs of the lungs dissected from mice with different treatments. […] The effect was further confirmed by the metastatic tumors counted under a magnifier (Table 3). […]

For `CN(C)/N=N/c1[nH]cnc1C(N)=O` [Dacarbazine], the “Number of metastatic tumors in murine lungs, Average” value was 0.8 ± 2.0.
